Laboratory results as given in article PMC3967213, “Cyclic Marinopyrrole Derivatives as Disruptors of Mcl-1 and Bcl-xL Binding to Bim” (Marine Drugs, 2014).
“Also recorded” adds a separate entry of the source. Where two headings read alike, the source gives them in different places.

Key:
[1] = biological target: GST-Mcl-1 / biotinylated Bim BH3 peptide (Homo sapiens, UniProt Q07820); test: ELISA, disruption of Mcl-1 binding to Bim; settings: for fold potency relative to 1 against Mcl-1/Bim: compared with 1
Protocol: (§1) ELISAs were performed using a similar procedure as previously described. Briefly, 40 nM of biotinylated Bim BH3 peptide (Biomatik, Wilmington, DE, USA) in SuperBlock blocking buffer (Thermo Scientific Pierce, Rockford, IL, USA) was incubated in high-binding capacity streptavidin-coated plates (Thermo Scientific Pierce, Rockford, IL, USA) for 2 h. Compounds were diluted in 120 µL of PBS containing 10 nM of GST-Mcl-1 or GST-Bcl-xL in 1.5-mL tubes for 15 min. Wells were washed with wash buffer (PBS containing 0.05% Tween-20) and then 100 µL of the compound/GST-protein mixture was transferred to the wells. The plates were incubated for 2 h, and then, the wells were washed with wash buffer. HRP-conjugated anti-GST antibody (Bethyl Laboratories, Montgomery, TX, USA) was diluted 1:2000 in SuperBlock, and 100 µL were transferred to each well. The plate was incubated for 1 h, and then, the wells were washed with wash buffer followed by PBS. One hundred microliters of SureBlue TMB Microwell Peroxidase Substrate (VWR International, Radnor, PA, USA) was added to each well, and the plates were developed for 5–10 min. One hundred microliters of 1 N HCl was added to each well to stop the reaction, and the absorbance was read at 450 nm using a µQuant plate reader (Bio-Tek Instruments, Winooski, VT, USA).

[2] = system: Mcl-1, Bim and caspase 3 in MDA-MB-468 cells; test: Western blotting after treatment of intact human breast cancer cells; format: cell-based; settings: 10 μM for 16 h
[3] = biological target: GST-Bcl-xL / biotinylated Bim BH3 peptide (Homo sapiens, UniProt Q07817); test: ELISA, disruption of Bcl-xL binding to Bim; settings: for fold potency relative to 1 against Bcl-xL/Bim: compared with 1; for IC50: 10 nM GST-Bcl-xL, 40 nM biotinylated Bim BH3 peptide, read-out: IC50 against Bcl-xL/Bim binding
Protocol: as §1

GST-Mcl-1 / biotinylated Bim BH3 peptide, sequence (Q07820 whole entry): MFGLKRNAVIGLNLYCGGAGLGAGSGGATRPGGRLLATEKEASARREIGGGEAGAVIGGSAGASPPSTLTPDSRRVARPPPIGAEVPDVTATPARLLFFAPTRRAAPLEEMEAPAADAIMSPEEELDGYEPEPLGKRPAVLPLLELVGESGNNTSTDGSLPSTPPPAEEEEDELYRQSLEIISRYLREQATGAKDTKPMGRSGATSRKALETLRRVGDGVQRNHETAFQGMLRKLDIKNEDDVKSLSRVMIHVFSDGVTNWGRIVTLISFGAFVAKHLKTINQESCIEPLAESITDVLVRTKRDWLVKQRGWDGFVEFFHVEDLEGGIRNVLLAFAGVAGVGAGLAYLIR
GST-Bcl-xL / biotinylated Bim BH3 peptide, sequence (Q07817 whole entry): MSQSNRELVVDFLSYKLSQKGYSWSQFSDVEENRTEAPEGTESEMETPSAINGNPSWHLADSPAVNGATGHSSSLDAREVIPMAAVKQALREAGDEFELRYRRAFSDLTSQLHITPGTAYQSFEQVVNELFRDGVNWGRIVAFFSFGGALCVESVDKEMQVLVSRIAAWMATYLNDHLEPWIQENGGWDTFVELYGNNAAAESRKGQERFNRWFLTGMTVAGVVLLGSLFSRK

Row | Structure (SMILES) | cleavage of caspase 3 [2] | levels of Mcl-1 and Bim [2] | activity against Mcl-1/Bim (in words) ([1]; ELISA) | other results
1 | O=C(c1ccccc1O)c1[nH]c(Cl)c(Cl)c1-n1c(C(=O)c2ccccc2O)cc(Cl)c1Cl (racemic) [Compound 1, (±)-marinopyrrole A, reference compound] | cleave caspase 3 | able to decrease | – | IC50 [1]: 8.9 µM
2 | O=C1c2ccc(OS(=O)(=O)C(F)(F)F)cc2Oc2c(Cl)cc(C(=O)c3ccc(OS(=O)(=O)C(F)(F)F)cc3O)n2-c2c1[nH]c(Cl)c2Cl [Compound 3, 3-Hydroxy-4-(2,3,7-trichloro-13-oxo-10-(((trifluoromethyl)sulfonyl)oxy)-1,13 dihydrobenzo[g]di-pyrrolo[2,1-b:3′,2′-d][1,3]oxazocine-5-carbonyl)phenyl trifluoromethanesulfonate] | – | – | – | fold potency relative to 1 against Bcl-xL/Bim [3]: seven-fold higher potency; fold potency relative to 1 against Mcl-1/Bim ([1]; ELISA): six
3 | COC(=O)c1ccc(C(=O)c2cc(Cl)c3n2-c2c([nH]c(Cl)c2Cl)C(=O)c2ccc(C(=O)OC)cc2O3)c(O)c1 [Compound 4, Methyl-2,3,7-trichloro-5-(2-hydroxy-4-(methoxycarbonyl)benzoyl)-13-oxo-1,13-dihydrobenzo[g]-dipyrrolo[2,1-b:3′,2′-d][1,3]oxazocine-10-carboxylate] | – | – | – | fold potency relative to 1 against Bcl-xL/Bim [3]: seven-fold more potent; fold potency relative to 1 against Mcl-1/Bim ([1]; ELISA): two-fold more potent
4 | COC(=O)c1ccc(C(=O)c2[nH]c(Cl)c(Cl)c2-n2c(C(=O)c3ccc(C(=O)OC)cc3O)cc(Cl)c2Cl)c(O)c1 [Compound 4a, dimethyl-4,4′-(4,4′,5,5′-tetrachloro-1′H-[1,3′-bipyrrole]-2,2′-dicarbonyl)bis(3-hydroxybenzoate)] | cleavage of caspase 3 | significant decrease | showed activity | –
5 | CCOP(=O)(OCC)c1ccc(C(=O)c2cc(Cl)c3n2-c2c([nH]c(Cl)c2Cl)C(=O)c2ccc(P(=O)(OCC)OCC)cc2O3)c(O)c1 [Compound 5, 3-Hydroxy-4-(2,3,7-trichloro-13-oxo-10-(diethylphosphonyl)-1,13-dihydrobenzo[g]dipyrrolo[2,1-b:3′,2′-d][1,3]oxazocine-5-carbonyl)diethyl phosphonate] | – | – | – | IC50 [3]: > 100 µM; IC50 ([1]; ELISA, 10 nM GST-Mcl-1, 40 nM biotinylated Bim BH3 peptide, read-out: IC50 to disrupt the binding of Mcl-1 to Bim): > 100 µM
6 | CCOP(=O)(OCC)c1ccc(C(=O)c2[nH]c(Cl)c(Cl)c2-n2c(C(=O)c3ccc(P(=O)(OCC)OCC)cc3O)cc(Cl)c2Cl)c(O)c1 [Compound 5a, tetraethyl((4,4′,5,5′-tetrachloro-1′H-[1,3′-bipyrrole]-2,2′-dicarbonyl)bis(3-hydroxy-4,1-phenylene))bis(phosphonate)] | little effect | little effect | showed activity | IC50 [3]: > 100 µM
7 | O=C(O)c1ccc(C(=O)c2[nH]c(Cl)c(Cl)c2-n2c(C(=O)c3ccc(C(=O)O)cc3O)cc(Cl)c2Cl)c(O)c1 [Compound 7a, 4,4′-(4,4′,5,5′-Tetrachloro-1′H-[1,3′-bipyrrole]-2,2′-dicarbonyl)bis(3-hydroxybenzoic acid)] | little caspase 3 cleavage | did not decrease | lower activity than 1; also recorded: less active | activity against Bcl-xL/Bim (in words) [3]: little activity; also recorded: less active; melting point: 190.5 to 192 °C
8 | O=C(c1ccc(P(=O)(O)O)cc1O)c1[nH]c(Cl)c(Cl)c1-n1c(C(=O)c2ccc(P(=O)(O)O)cc2O)cc(Cl)c1Cl [Compound 8a, ((4,4′,5,5′-Tetrachloro-1′H-[1,3′-bipyrrole]-2,2′-dicarbonyl)bis(3-hydroxy-4,1-phenylene))diphosphonic acid] | little effect | little effect | slightly less potent than 1; also recorded: less active | activity against Bcl-xL/Bim (in words) [3]: less active
